From US20220273660A1, “MEK INHIBITOR FOR TREATMENT OF STROKE” (EDVINCE AB, priority 2019, published 2022)

Tests used:
rat basilar arteries = assay: 48 h organ culture of basilar artery, VDCC independent contraction (Ca2+ curve after ET-1 precontraction with nimodipine); assay type: cell-based; conditions: 1 μM inhibitor, 48 h OC, 10^-7 M nimodipine
Procedure: Rats were sedated with O2/CO2 (30/70%) and sacrificed by decapitation. Brains were gently removed and chilled in a cold oxygenated buffer solution of the following composition: 119 mM NaCl, 4.6 mM KCl, 1.5 mM CaCl2, 1.2 mM MgCl2, 1.2 mM NaH2PO4, 15 mM NaHCO3 and 5.5 mM Glucose; pH 7.4. The basilar artery (BA) was carefully dissected from the brain in a physiological buffer solution followed by either OC (naïve animals) or directly mounted in a wire myograph (arteries from rats which has undergone surgical procedures). Segments were incubated for 48 hours at 37° C. in humidified 5% CO2/O2 in DMEM supplemented with streptomycin and penicillin with inhibitors or vehicle (DMSO). Culture media was changed after 24 hours.
The segments were equilibrated in physiological buffer aerated with 95% O2/5% CO2, pH of 7.4, temperature set at 37° C. and the wires were separated for isometric pretension at 2 Nm^−1. The arterial segments were exposed two or three times with 60 mM K^+, by exchanging the buffer with a 60 mM K^+ buffer solution. To maintain equal osmolarity, a proportional amount of Na^+ had been removed from the buffer. An absolute cut-off was set at 2.0 mN K^+max for inclusion of arterial segments from rats that underwent the surgical procedure. Endothelium function was evaluated with the addition of 5-HT (3.10^−7 M) followed by carbachol (10^−5 M). […]

[1] = system: rat subarachnoid haemorrhage model; assay: Rat SAH model, intrathecal treatment, myograph of basilar arteries; assay type: in vivo
Procedure: For contractility measurements, both incubated BAs (ex vivo) and BAs after surgical procedure (in vivo) were cut into segments and mounted on a pair of metal wires (40 μm) in a myograph bath. The arteries from OC were mounted the same way after 48 hours in media. One wire was attached to a micro-meter screw which allows for fine adjustments of the distance between the wires, controlling the vascular tone.
The arterial segments were exposed two or three times with 60 mM K^+, by exchanging the buffer with a 60 mM K^+ buffer solution. To maintain equal osmolarity, a proportional amount of Na^+ had been removed from the buffer. An absolute cut-off was set at 2.0 mN K^+max for inclusion of arterial segments from rats that underwent the surgical procedure. Endothelium function was evaluated with the addition of 5-HT (3.10^−7 M) followed by carbachol (10^−5 M). For arteries from the OC the protocol was as followed: first a cumulative concentration-response curve to sarafotoxin 6C (S6c, 10^−14-10^−7 M), followed by a concentration-response curve to endothelin-1 (ET-1, 10^−14-10^−7 M). At peak ET-1 (10^−7 M), the buffer was changed to a Ca^2+-free buffer containing 10^−7 M ET-1 and nimodipine (L-type of voltage dependent Ca^2+ channel entry blocker, 10^−7 M). […] When vasodilation was investigated arteries was precontracted with U46619 (1.10^−7-3.10^−7 M) or K^+ (41 mM) and cumulative concentration-response curves was performed by adding calcitonin gene-related peptide (CGRP, 10^−12-10^−7 M), carbachol (10^−10-10^−5 M) or SNP (10^−11-10^−4 M).
If there was only one curve above the cut-off, the concentration-response curve to ET-1 was prioritized. Segments with the highest K^+ response were generally allocated to the concentration-response curve to ET-1. […] The Ca^2+ free buffer solution had similar composition as above, but 1.5 mM CaCl2 was exchanged with 0.03 mM EDTA.
Contractile responses of each segment were adjusted according to the length of the artery and are expressed as mN/mm (Nm^−1). […] To compare ET-1 sensitivity, arteries were normalized to the percentage of the individual vessel ET-1max. When the artery reached maximum contraction before the last concentration was added, the curves were constrained to the max contraction. The relative log IC50/log EC50 is the concentration corresponding to a response midway between the estimates of the lower and upper plateaus. The Emax is the maximal contraction in the concentration response curve and ET-1max is the maximal contraction to ET-1. All quantitative data is presented as mean±standard error of the mean (SEM), unless otherwise stated.
Rats were anesthetized and prepared for cisternal infusion of autologous blood, which simulates a SAH. Sham-operated rats went through the same procedure, omitting the intracisternal blood injection of 300 μL. At the end of the procedure, a PinPort (PNP3F22, Instech, US) was placed at the end of the ICP catheter to provide access for intrathecal (i.t.) injectable treatments by a PinPort injector (PNP-3M, Instech, US). 24 hours post-surgery, the rats received s.c. injections of Carprofen (Norodyl, 5 mg/kg) (Scanvet, Denmark) for analgesia.
The intrathecal (i.t.) treatment volumes were estimated for a cerebrospinal fluid (CSF) volume of approximately 90 μL (21) and the total dose was administered as three treatments (4 hours, 10 hours and 24 hours) through the PinPort in the ICP catheter placed in the cisterna magna during the surgical procedure. The first and third injections were given under fixation of the rat. […] Animals were given 2.5 ml isotonic saline s.c. to avoid dehydration, immediately after surgery and in conjunction with the 10 hours and 24 hours treatments.

CC(=O)Nc1cccc(-n2c(=O)n(C3CC3)c(=O)c3c(Nc4ccc(I)cc4F)n(C)c(=O)c(C)c32)c1 [trametinib]
VDCC independent contraction (rat basilar arteries): significantly prevented
K+ responses compared to i.t. vehicle ([1]; SAH + i.t. treatment): higher K^+ responses
contraction at low ET-1 concentrations (10^-12.5-10^-11.0 M), ET-1max normalised, vs SAH+vehicle ([1]; SAH + i.t. treatment): significantly reduced
nimodipine insensitive ET-1max contraction ([1]; SAH + i.t. treatment, Ca2+ curve, 10^-7 M nimodipine): 1.8±0.5 Nm^−1
contractile response of BAs to 60 mM K+ ([1]; SAH + i.t. treatment, all BAs incl. below cut-off): 5.00±0.29 Nm^−1
endothelium function ([1]; animals treated in vivo i.t. after SAH): No significant changes
